These results are taken from patent US5958943A, “[A]-anellated pyrrole derivatives and their use in pharmacology” (Merckle GmbH, priority 1994, dated 1999).

In one test the test system is mouse. Description: Formalin analgesia test in the mouse p.o. Type of test: in vivo. The text has this:
The spectrum of efficacy of the compounds was also investigated using the following tests:
2) Formalin analgesia test in the mouse p.o., B. Rubin et al., Endocrinol.,49:429-439, 1951;

The target in a further test is T1, 5-lipoxygenase (Bos taurus, UniProt F1MQ78).
T1 construct: endogenous in cells
T1 sequence (F1MQ78 1-674): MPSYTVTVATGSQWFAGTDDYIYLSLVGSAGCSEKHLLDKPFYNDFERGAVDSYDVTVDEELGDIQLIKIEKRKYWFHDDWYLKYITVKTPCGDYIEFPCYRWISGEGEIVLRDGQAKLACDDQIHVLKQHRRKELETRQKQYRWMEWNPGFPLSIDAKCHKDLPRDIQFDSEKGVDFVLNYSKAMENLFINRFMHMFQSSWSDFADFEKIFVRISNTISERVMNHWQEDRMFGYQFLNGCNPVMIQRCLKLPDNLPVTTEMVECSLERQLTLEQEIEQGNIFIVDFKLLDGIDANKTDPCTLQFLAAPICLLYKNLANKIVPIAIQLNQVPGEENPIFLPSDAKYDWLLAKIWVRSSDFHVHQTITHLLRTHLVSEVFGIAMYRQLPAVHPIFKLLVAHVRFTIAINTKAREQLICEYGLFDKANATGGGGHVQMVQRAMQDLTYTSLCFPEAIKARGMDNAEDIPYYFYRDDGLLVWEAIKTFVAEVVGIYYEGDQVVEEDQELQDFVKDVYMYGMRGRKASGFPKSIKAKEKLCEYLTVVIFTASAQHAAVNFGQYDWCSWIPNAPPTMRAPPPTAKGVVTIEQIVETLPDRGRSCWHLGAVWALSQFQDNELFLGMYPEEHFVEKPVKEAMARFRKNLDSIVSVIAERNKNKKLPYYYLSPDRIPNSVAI
Kind of test: Inhibition of 5-lipoxygenase (LO), according to Dannhardt et al. The class given is biochemical. To be noted: Table 1 column IC50 LO/CO, first value. The text has this:
(§1) The efficacy of the compounds according to the invention can be determined from the inhibition of 5-lipoxygenase or cyclooxygenase. Experiments have be carried out according to Dannhardt et al., J. Pharm. Pharmacol. 1992, 44: 419-424.

Another test addresses T2, cyclooxygenase (Bos taurus, UniProt O62664).
T2 construct: endogenous in cells
T2 sequence (O62664 25-600): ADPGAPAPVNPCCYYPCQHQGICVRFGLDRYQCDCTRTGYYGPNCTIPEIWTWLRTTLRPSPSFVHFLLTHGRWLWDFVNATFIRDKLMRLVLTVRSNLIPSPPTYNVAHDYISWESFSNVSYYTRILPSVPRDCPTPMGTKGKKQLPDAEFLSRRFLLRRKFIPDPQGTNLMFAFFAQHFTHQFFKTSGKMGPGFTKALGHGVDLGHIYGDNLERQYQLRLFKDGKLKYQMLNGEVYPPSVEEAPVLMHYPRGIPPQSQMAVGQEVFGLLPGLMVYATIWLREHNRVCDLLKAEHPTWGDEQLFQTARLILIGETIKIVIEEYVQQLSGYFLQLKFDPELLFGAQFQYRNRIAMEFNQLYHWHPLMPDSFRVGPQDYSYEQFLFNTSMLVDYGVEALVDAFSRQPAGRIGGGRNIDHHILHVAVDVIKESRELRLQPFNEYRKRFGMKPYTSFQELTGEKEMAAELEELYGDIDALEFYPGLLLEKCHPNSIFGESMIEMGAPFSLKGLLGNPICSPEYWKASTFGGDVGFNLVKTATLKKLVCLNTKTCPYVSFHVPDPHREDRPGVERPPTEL
Description: Inhibition of cyclooxygenase (CO), according to Dannhardt et al. The class given is biochemical. To be noted: Table 1 column IC50 LO/CO, second value.
Excerpt: as §1

For orientation: IC50 means the midpoint of a concentration-inhibition curve. In the case of `CC1(C)Cc2c(-c3ccccc3)c(-c3ccc(Cl)s3)c(CC(=O)O)n2C1` [Example 1], in the test on mouse (in vivo, compared with the corresponding 4-chlorophenyl derivative), the “times more analgesically effective than the corresponding 4-chlorophenyl derivative” value came out at 10 times. Further, the figures for the IC50 against 5-lipoxygenase and against cyclooxygenase were 400 nM and 200 nM, respectively.
In the case of `CC1(C)Cc2c(-c3ccccc3)c(-c3ccc(Cl)cc3)c(CC(=O)O)n2C1` [corresponding 4-chlorophenyl derivative, reference compound], the minimal effective dose with mouse (po, formalin analgesia model of the mouse, comparison compound, read-out: MED) turned out to be 100 mg/kg.
